Source: patent US8148373B2, “Compounds” (AstraZeneca AB, priority 2008, dated 2012)

Experiments:
[1] = molecular target: T1, Adrenergic β2 (H292 cells) (Homo sapiens, UniProt P07550); assay: Assay for Adrenergic β2 Mediated cAMP Production (concentration response, AlphaScreen cAMP detection); assay type: cell-based; conditions: for EC50: cAMP production, 60 minutes at room temperature, 300 μM rolipram, read-out: β2 pEC50 (converted); for β2 Intrinsic activity: fraction relative to the maximum activity determined for formoterol
T1 construct: endogenous in cells; host or cells: H292 cells
How it was run: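 Intrinsic activity is relative to the per-experiment formoterol maximum, with pEC50 from a four-parameter logistic fit of cAMP levels quantified by AlphaScreen against standards. Cells (H292) got 300 μM rolipram for 10 min, then compound for 60 min at room temperature, 1% DMSO final.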

[2] = molecular target: T2, human muscarinic acetylcholine M3 receptor (M3-ACh) (Homo sapiens, UniProt P20309); assay: Muscarinic 3 Receptor Binding Assay ([3H]NMS competition, SPA); conditions: [3H]NMS 0.1 nM, CHO-K1 cell membranes, 16 hours at room temperature; read-out: M3 pIC50 (converted)
T2 construct: expressed in transfected cells; host or cells: CHO-K1 (Chinese Hamster Ovary) cell membranes
How it was run: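 Competition SPA binding of 0.1 nM [3H]NMS (quarter Kd) to membranes from CHO-K1 cells expressing human M3, in 20 mM HEPES pH 7.4, 5 mM MgCl2, 1% DMSO. Incubated 16 h at room temperature; non-specific binding with 1 µM atropine. pIC50 from 50% reduction of specific binding.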

T1 sequence (P07550 whole entry): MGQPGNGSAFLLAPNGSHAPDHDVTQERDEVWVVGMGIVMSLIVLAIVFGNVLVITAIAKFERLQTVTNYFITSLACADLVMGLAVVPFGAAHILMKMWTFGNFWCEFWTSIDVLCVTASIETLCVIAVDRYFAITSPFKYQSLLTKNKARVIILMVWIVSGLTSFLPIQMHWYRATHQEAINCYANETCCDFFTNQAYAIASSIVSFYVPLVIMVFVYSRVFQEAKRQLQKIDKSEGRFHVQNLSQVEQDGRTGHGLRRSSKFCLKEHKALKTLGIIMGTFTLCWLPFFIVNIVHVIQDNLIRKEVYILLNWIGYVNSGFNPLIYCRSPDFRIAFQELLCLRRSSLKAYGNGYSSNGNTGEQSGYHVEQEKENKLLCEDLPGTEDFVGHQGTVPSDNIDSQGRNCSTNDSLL
T2 sequence (P20309 whole entry): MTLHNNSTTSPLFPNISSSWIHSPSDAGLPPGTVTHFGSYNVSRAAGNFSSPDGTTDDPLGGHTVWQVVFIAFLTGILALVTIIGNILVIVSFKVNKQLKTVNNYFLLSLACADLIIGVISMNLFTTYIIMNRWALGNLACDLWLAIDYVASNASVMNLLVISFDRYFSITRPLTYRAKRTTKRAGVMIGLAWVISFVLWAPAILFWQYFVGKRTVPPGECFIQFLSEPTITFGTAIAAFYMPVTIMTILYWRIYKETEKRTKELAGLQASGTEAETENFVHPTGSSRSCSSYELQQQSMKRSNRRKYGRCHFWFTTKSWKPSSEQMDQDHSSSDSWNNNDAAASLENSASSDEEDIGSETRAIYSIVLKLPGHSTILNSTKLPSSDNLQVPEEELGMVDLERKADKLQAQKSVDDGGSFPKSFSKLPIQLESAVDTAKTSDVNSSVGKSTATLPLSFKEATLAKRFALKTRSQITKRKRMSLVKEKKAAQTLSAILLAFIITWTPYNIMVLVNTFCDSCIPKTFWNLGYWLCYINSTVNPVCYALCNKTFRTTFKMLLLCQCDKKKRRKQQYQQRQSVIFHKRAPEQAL

SMILES | EC50 [1] [nM] | β2 Intrinsic activity [1] | IC50 [2] [nM]
Cc1ccc(S(=O)(=O)N2CCOC3(CCN(Cc4cc(F)cc(CCNC[C@H](O)c5ccc(O)c6[nH]c(=O)sc56)c4)CC3)C2)s1 [Example 63, (R)-7-(2-(3-Fluoro-5-((4-(5-methylthiophen-2-ylsulfonyl)-1-oxa-4,9-diazaspiro[5.5]undecan-9-yl)methyl)phenethylamino)-1-hydroxyethyl)-4-hydroxybenzo[d]thiazol-2(3H)-one ditrifluoroacetate] | 5.01 | 1 | > 1000
O=C(c1csc(CC(F)(F)F)n1)N1CCOC2(CCN(Cc3cccc(CCNC[C@H](O)c4ccc(O)c5[nH]c(=O)sc45)c3F)CC2)C1 [Example 67, (R)-7-(2-(2-Fluoro-3-((4-(2-(2,2,2-trifluoroethyl)thiazole-4-carbonyl)-1-oxa-4,9-diazaspiro[5.5]undecan-9-yl)methyl)phenethylamino)-1-hydroxyethyl)-4-hydroxybenzo[d]thiazol-2(3H)-one ditrifluoroacetate] | 15.8 | 0.9 | 3.16
O=C(c1ccc2sccc2c1)N1CCOC2(CCN(Cc3cccc(CCNC[C@H](O)c4ccc(O)c5[nH]c(=O)sc45)c3F)CC2)C1 [Example 68, (R)-7-(2-(3-((4-(Benzo[b]thiophene-5-carbonyl)-1-oxa-4,9-diazaspiro[5.5]undecan-9-yl)methyl)-2-fluorophenethylamino)-1-hydroxyethyl)-4-hydroxybenzo[d]thiazol-2(3H)-one ditrifluoroacetate] | 6.31 | 0.8 | 25.1
Cc1sc(C(C)C)nc1C(=O)N1CCOC2(CCN(Cc3cccc(CCNC[C@H](O)c4ccc(O)c5[nH]c(=O)sc45)c3F)CC2)C1 [Example 69, (R)-7-(2-(2-Fluoro-3-((4-(2-isopropyl-5-methylthiazole-4-carbonyl)-1-oxa-4,9-diazaspiro[5.5]undecan-9-yl)methyl)phenethylamino)-1-hydroxyethyl)-4-hydroxybenzo[d]thiazol-2(3H)-one ditrifluoroacetate] | 15.8 | 0.9 | 20
CC(C)c1ccc(C(=O)N2CCOC3(CCN(Cc4cccc(CCNC[C@H](O)c5ccc(O)c6[nH]c(=O)sc56)c4F)CC3)C2)s1 [Example 73, (R)-7-(2-(2-Fluoro-3-((4-(5-isopropylthiophene-2-carbonyl)-1-oxa-4,9-diazaspiro[5.5]undecan-9-yl)methyl)phenethylamino)-1-hydroxyethyl)-4-hydroxybenzo[d]thiazol-2(3H)-one ditrifluoroacetate] | 7.94 | 0.9 | 7.94
CC(C)c1csc(C(=O)N2CCOC3(CCN(Cc4cccc(CCNC[C@H](O)c5ccc(O)c6[nH]c(=O)ccc56)c4)CC3)C2)n1 [Example 76, (R)-8-Hydroxy-5-(1-hydroxy-2-(3-((4-(4-isopropylthiazole-2-carbonyl)-1-oxa-4,9-diazaspiro[5.5]undecan-9-yl)methyl)phenethylamino)ethyl)quinolin-2(1H)-one ditrifluoroacetate] | 31.6 | 0.9 | 2
CC(C)c1nc(C(=O)N2CCOC3(CCN(CCOc4ccc(CCNC[C@H](O)c5ccc(O)c6[nH]c(=O)ccc56)c(F)c4F)CC3)C2)cs1 [Example 77, (R)-5-(2-(2,3-Difluoro-4-(2-(4-(2-isopropylthiazole-4-carbonyl)-1-oxa-4,9-diazaspiro[5.5]undecan-9-yl)ethoxy)phenethylamino)-1-hydroxyethyl)-8-hydroxyquinolin-2(1H)-one ditrifluoroacetate] | 79.4 | 1 | 2.51
CCCCc1nc(C(=O)N2CCOC3(CCN(Cc4cccc(CCNC[C@H](O)c5ccc(O)c6[nH]c(=O)sc56)c4F)CC3)C2)cs1 [Example 78, (R)-7-(2-(3-((4-(2-Butylthiazole-4-carbonyl)-1-oxa-4,9-diazaspiro[5.5]undecan-9-yl)methyl)-2-fluorophenethylamino)-1-hydroxyethyl)-4-hydroxybenzo[d]thiazol-2(3H)-one ditrifluoroacetate] | 15.8 | 0.9 | 10

Other lines, results leading:

EC50 [1] [nM] | β2 Intrinsic activity [1] | IC50 [2] [nM] | SMILES
63.1 | 0.9 | 5.01 | CC(C)c1nc(C(=O)N2CCOC3(CCN(Cc4cc(CCNC[C@H](O)c5ccc(O)c6[nH]c(=O)sc56)ccc4Cl)CC3)C2)cs1 [Example 61, (R)-7-(2-(4-Chloro-3-((4-(2-isopropylthiazole-4-carbonyl)-1-oxa-4,9-diazaspiro[5.5]undecan-9-yl)methyl)phenethylamino)-1-hydroxyethyl)-4-hydroxybenzo[d]thiazol-2(3H)-one ditrifluoroacetate]
251 | 0.9 | 251 | CC(C)c1nc(C(=O)N2CCOC3(CCN(Cc4cccc5c(CNC[C@H](O)c6ccc(O)c7[nH]c(=O)sc67)cccc45)CC3)C2)cs1 [Example 62, (R)-4-Hydroxy-7-(1-hydroxy-2-((5-((4-(2-isopropylthiazole-4-carbonyl)-1-oxa-4,9-diazaspiro[5.5]undecan-9-yl)methyl)naphthalen-1-yl)methylamino)ethyl)benzo[d]thiazol-2(3H)-one ditrifluoroacetate]
50.1 | 0.9 | 0.2 | CC(C)c1nc(C(=O)N2CCOC3(CCN(Cc4cccc(OCCNC[C@H](O)c5ccc(O)c6[nH]c(=O)sc56)c4)CC3)C2)cs1 [Example 64, (R)-4-Hydroxy-7-(1-hydroxy-2-(2-(3-((4-(2-isopropylthiazole-4-carbonyl)-1-oxa-4,9-diazaspiro[5.5]undecan-9-yl)methyl)phenoxy)ethylamino)ethyl)benzo[d]thiazol-2(3H)-one ditrifluoroacetate]
100 | 0.9 | 0.631 | CC(C)c1nc(C(=O)N2CCOC3(CCN(Cc4cccc(SCCNC[C@H](O)c5ccc(O)c6[nH]c(=O)sc56)c4)CC3)C2)cs1 [Example 65, (R)-4-Hydroxy-7-(1-hydroxy-2-(2-(3-((4-(2-isopropylthiazole-4-carbonyl)-1-oxa-4,9-diazaspiro[5.5]undecan-9-yl)methyl)phenylthio)ethylamino)ethyl)benzo[d]thiazol-2(3H)-one ditrifluoroacetate]
15.8 | 0.9 | 0.794 | CC(C)c1csc(C(=O)N2CCOC3(CCN(Cc4cccc(CCNC[C@H](O)c5ccc(O)c6[nH]c(=O)sc56)c4)CC3)C2)n1 [Example 66, (R)-4-Hydroxy-7-(1-hydroxy-2-(3-((4-(4-isopropylthiazole-2-carbonyl)-1-oxa-4,9-diazaspiro[5.5]undecan-9-yl)methyl)phenethylamino)ethyl)benzo[d]thiazol-2(3H)-one ditrifluoroacetate]
7.94 | 0.8 | 3.16 | CC(C)c1cc(C(=O)N2CCOC3(CCN(Cc4cccc(CCNC[C@H](O)c5ccc(O)c6[nH]c(=O)sc56)c4F)CC3)C2)cs1 [Example 70, (R)-7-(2-(2-Fluoro-3-((4-(5-isopropylthiophene-3-carbonyl)-1-oxa-4,9-diazaspiro[5.5]undecan-9-yl)methyl)phenethylamino)-1-hydroxyethyl)-4-hydroxybenzo[d]thiazol-2(3H)-one ditrifluoroacetate]
20 | 0.8 | 5.01 | CCC(CC)c1nc(C(=O)N2CCOC3(CCN(Cc4cccc(CCNC[C@H](O)c5ccc(O)c6[nH]c(=O)sc56)c4F)CC3)C2)cs1 [Example 71, (R)-7-(2-(2-Fluoro-3-((4-(2-(pentan-3-yl)thiazole-4-carbonyl)-1-oxa-4,9-diazaspiro[5.5]undecan-9-yl)methyl)phenethylamino)-1-hydroxyethyl)-4-hydroxybenzo[d]thiazol-2(3H)-one ditrifluoroacetate]
7.94 | 0.8 | 10 | CC(C)Cc1nc(C(=O)N2CCOC3(CCN(Cc4cccc(CCNC[C@H](O)c5ccc(O)c6[nH]c(=O)sc56)c4F)CC3)C2)cs1 [Example 72, (R)-7-(2-(2-Fluoro-3-((4-(2-isobutylthiazole-4-carbonyl)-1-oxa-4,9-diazaspiro[5.5]undecan-9-yl)methyl)phenethylamino)-1-hydroxyethyl)-4-hydroxybenzo[d]thiazol-2(3H)-one ditrifluoroacetate]
12.6 | 0.9 | 20 | CC(C)c1csc(C(=O)N2CCOC3(CCN(Cc4cccc(CCNC[C@H](O)c5ccc(O)c6[nH]c(=O)sc56)c4F)CC3)C2)c1 [Example 74, (R)-7-(2-(2-Fluoro-3-((4-(4-isopropylthiophene-2-carbonyl)-1-oxa-4,9-diazaspiro[5.5]undecan-9-yl)methyl)phenethylamino)-1-hydroxyethyl)-4-hydroxybenzo[d]thiazol-2(3H)-one ditrifluoroacetate]
25.1 | 0.8 | 2 | CC(C)c1nc(C(=O)N2CCOC3(CCN(Cc4ccc(Cl)c(CCNC[C@H](O)c5ccc(O)c6[nH]c(=O)sc56)c4)CC3)C2)cs1 [Example 75, (R)-7-(2-(2-Chloro-5-((4-(2-isopropylthiazole-4-carbonyl)-1-oxa-4,9-diazaspiro[5.5]undecan-9-yl)methyl)phenethylamino)-1-hydroxyethyl)-4-hydroxybenzo[d]thiazol-2(3H)-one ditrifluoroacetate]
